From patent US4377687A, “Analogs of 1-(2-chloroethyl)-1-nitroso-3-(cycloheyl)-urea substituted by heterocyclic rings or alkyl radicals” (Stiftung Deutsches Krebsforschungszentrum, priority 1978, dated 1983)
Read-outs that look alike come from different tables or passages of the source.

Assays:
Yoshida sarcoma [1] = format: in vivo, rat (male Sprague-Dawley rats); conditions: for tumor-free animals at the end of the experiment (in words) / increase in tumor-free animals (cures) above controls: 120 days; for increase in tumor-free animals (cures) above controls: BCNU, MeCCNU 45, dimethylmorpholine-CNU 45, piperidino-CNU 15, picolyl-3-CNU.HCl 25 mg/kg; for M = median survival time: i.p. day 8; for effect on survival time / life expectancy (in words): experiments 1-4, MeCCNU 45, morpholino-CNU 28 (exp. 3 and 5), dimethylmorpholine-CNU 45, piperidino-CNU 15, picolyl-3-CNU 25, picolyl-3-CNU.HCl 25 mg/kg; for chemotherapeutic activity against Yoshida sarcoma in the colon wall (in words): i.p.; for effect on the survival time on retest (in words): Experiment 5, cyclophosphamide as a standard
Method: The chemotherapeutic activity of nitrosoureas was compared in antitumor tests using Yoshida sarcoma ascited cells implanted into the wall of the descending colon in Sprague-Dawley rats.
(§1) Male Sprague-Dawley rats were used in the experiments. Yoshida sarcome in ascites form was maintained in the same strain of rats by serial intraperitoneal injection of 0,5 ml of ascites fluid.
(§2) 3×10^6 cells were injected into the colon wall in a manner known per se. The chemotherapeutic treatment was carried out on the eighth day after implantation of the tumor cells.
(§3) Water-insoluble compounds were dissolved in Cremophor EL/ethanol/physiological saline (20:20:60: vol.%). Water-soluble substances were dissolved in physiological saline. Cremophor EL is a surfactant on the basis of polyethoxylated castor oil. All test compounds were administered introperitoneally. The nitrosoureas were applied at approximately equitoxic doses corresponding to about 80% of the acute LD50 values observed in healthy rats of the same strain over a 28-day observation period.
(§4) Each experiment involved an untreated control group and a varying number of treated groups. Individual survival times were counted as days after tumor inoculation. At the time of death a record of whether an animal was tumor-free or not was made. All animals alive 120 days after tumor inoculation were killed. Animals that according to macroscopic examination had no tumor at the end of the experiment were considered as cured. Since in a number of control rats also no tumors occurred after 120 days the differences in cures between controls and treated animals rather than absolute numbers are reported. Differences in survival were evaluated statistically by individual comparisons between treated rats and controls using a nonparametric log-rank test (Kalbfleisch and Prentice, The statistical analysis of failure time data, Wiley, New York, 1979). Numerical evaluation was performed using a computerized system.

[2] = Mean animal weight / weight gain after tumor transplantation; format: in vivo, rat (Sprague-Dawley rats); conditions: CP 70 (exp. 1-3), BCNU 25, MeCCNU 45 (exp. 1), picolyl-3-CNU 25, its HCl 25 (exp. 2), morpholino-CNU 28, piperidino-CNU 15 (exp. 3), dimethylmorpholino-CNU 45 mg/kg (exp. 4); for Mean animal weight on day 50: day 50 after tumor transplantation; for Mean animal weight on day 100: day 100 after tumor transplantation
Method: as §1, §2, §3
In all treated animals and at all doses tested the mean weight gain was lower than in the controls. Table 3 gives the mean animal weights measured 50 and 100 days after tumor transplantation in experiments 1 to 5.

Yoshida sarcoma [3] = format: in vivo, rat (male Sprague-Dawley rats); conditions: i.p.
[4] = Stability of the substance; format: physicochemical
rat leukemia L 5222 = experiment: Chemotherapeutic activity against rat Leukemia L5222; format: in vivo, rat (BD IX rats); conditions: rat, in vivo
Method: Chemotherapeutic activity of methylformylamino-CNU against rat Leukemia L5222 (CNU=chloroethyl-nitroso-urea)
The compound to be tested was solved in Chremophor EL/ethanol/physiological saline and a single dose was administered intraperitoneally into tumor inoculated BD IX rats. The experiment involved an untreated control group and a number of treated groups. The doses used and the effects of the praeterminal treatment are summarized in the following Table from which the cures (animals free of tumor after 120 days) and the increase in life span (ILS, expressed as percentage of survival of the treated test group to the untreated control group) are evident.
Considering the fact that the true measure of the effectiveness of a drug against a neoplastic desease is the ability of the drug to kill the neoplastic cells at dosages that are not toxic to the host animal and that a quantitative evaluation of drug action is usually obtained by using the L1210 leucemia system in mice, it will be realized that in this test the tumor cells are injected into the peritoneal cavity of a mouse which thereafter is treated with the drug to be tested at a very early time after the inoculation of the tumor, i.e. at the first or second day after tumor inoculation. Thus such screening is done under very favourable test conditions for the drug. Contrary thereto the administration of the drug to be tested is performed relatively late in the case of the rat leucemia L5222, i.e. at the 8th day after tumor inoculation. It must, therefore, be taken that at that time tumor cells have colonized the cerebral region, i.e. the meninges, so that cures can only be obtained if the drug has an activity high enough to kill the leucemia cells in the cerebral region in a praeterminal state. Thus by far more severe test conditions are involved when treating rat leucemia L5222 or type Yoshida sarcoma which is a tumor model and which are hard to influence by known drugs.

[5] = Toxicity in treated tumor-bearing rats (Yoshida sarcoma experiments); format: in vivo, rat (Sprague-Dawley rats); conditions: at the doses tested
Method: as §1, §2, §3, §4

[6] = Experiment 4, 45 mg/kg, 30 initial animals
[7] = Experiment 3, CP 70, morpholino-CNU 28, piperidino-CNU 15 mg/kg
[8] = Experiment 3, CP 70, morpholino-CNU 28, piperidino-CNU 15 mg/kg, 30 initial animals each
[9] = Experiment 5, CP 70, picolyl-3-CNU.HCl 25, morpholino-CNU 28, piperidino-CNU 15 mg/kg
[10] = Experiment 5, CP 70, picolyl-3-CNU.HCl 25, morpholino-CNU 28, piperidino-CNU 15 mg/kg, 15 initial animals (picolyl-3-CNU.HCl 14)
[11] = Experiment 5, CP 70, piperidino-CNU 15 mg/kg

In the case of `CC1CN(NC(=O)N(CCCl)N=O)CC(C)O1` (centres unmarked) [Dimethylmorpholino-CNU], the “tumor-free animals at the end of the experiment (in words)” value (shortened to “tumor-free animals at the end”) (Yoshida sarcoma [1]) is reported as “remarkable increase in tumor-free animals”, the “increase in tumor-free animals (cures) above controls” value (Yoshida sarcoma [1]; CP (exp. 1-3)) is reported as 20% and the “% M (median survival time, untreated control = 100)” value (Yoshida sarcoma [1]; Experiment 4, 45 mg/kg) is reported as 374%. The “D1-120 = difference (%) between tf1-120 of treated and untreated animals” value (Yoshida sarcoma [1]; Experiment 4, 45 mg/kg) was 27%, the “D120 = difference (%) between tf120 of treated and untreated animals” value (shortened to “D120 = difference (%) between tf120”) (Yoshida sarcoma [1]; Experiment 4, 45 mg/kg) was 20% and the “tf1-120 (%) (tf120 + animals dying of toxicity)” value (shortened to “tf1-120 (%)”) (Yoshida sarcoma [1]; Experiment 4, 45 mg/kg) was 47%. For the same molecule, the “tf120 (%) (animals surviving day 120 without tumor)” value (Yoshida sarcoma [1]; Experiment 4, 45 mg/kg) was 40%, the “tf1-120, No. (tf120 + animals dying of toxicity)” value (Yoshida sarcoma [1]; [6]) was 14 and the “tf120, No. (animals surviving day 120 without tumor)” value (Yoshida sarcoma [1]; [6]) was 12. For the same molecule, the “M = median survival time” value (Yoshida sarcoma [1]; Experiment 4, 45 mg/kg) was 71 days, the “p for improvement of survival time / life expectancy” value (Yoshida sarcoma [1]; compared with controls, CP (exp. 1-3), dimethylmorpholine-CNU 45 mg/kg) was < 0,05 and the “effect on survival time / life expectancy (in words)” value (Yoshida sarcoma [1]; listed as Dimethylmorpholine-CNU) was “significantly improved the life expectancy”. The “effect on survival time / life expectancy (in words)” value (Yoshida sarcoma [1]; listed as dimethylmorpholino-CNU) was “significant increase in survival time”, the “chemotherapeutic activity against Yoshida sarcoma in the colon wall (in words)” value (“chemotherapeutic activity” below) (Yoshida sarcoma [1]) was “active” and the “Mean animal weight on day 50” value [2] was 250 g. The “Mean animal weight on day 100” value [2] was 250 g, the “concentration reached in the distal colon (in words)” value (“concentration reached” for short) (Yoshida sarcoma [3]) was “reached the distal colon at chemotherapeutically effective concentrations” and the “water solubility (in words)” value (Water solubility) was “water-soluble”.

In the case of `NNC(=O)N(CCCl)N=O` [Example 8, 1-(2-chloroethyl)-1-nitroso-3-amino-urea], the “stability (in words)” value [4] is reported as “slightly stable” and the “stability on storage (in words)” value ([4]; stored in the deep freezing compartment at -30° C.) is reported as “stable for a few days”.

In the case of `O=NN(CCCl)C(=O)NN1CCOCC1` [Morpholino-CNU, 1-(2-chloroethyl)-1-nitroso-3-(4-morpholino)-urea], the “effectiveness in rat leukemia L 5222 (in words)” value (rat leukemia L 5222) is reported as “very good effectiveness”, the “tumor-free animals at the end” value (Yoshida sarcoma [1]) is reported as “large number of tumor-free animals” and the “tumor-free animals at the end” value (Yoshida sarcoma [1]; listed as morpholino-CNU) is reported as “remarkable increase in tumor-free animals”. For the same molecule, the “% M (median survival time, untreated control = 100)” value (Yoshida sarcoma [1]; [7]) was > 686%, the “D1-120 = difference (%) between tf1-120 of treated and untreated animals” value (Yoshida sarcoma [1]; [7]) was 41% and the “D120 = difference (%) between tf120” value (Yoshida sarcoma [1]; [7]) was 34%. For the same molecule, the “tf1-120 (%)” value (Yoshida sarcoma [1]; [7]) was 70%, the “tf120 (%) (animals surviving day 120 without tumor)” value (Yoshida sarcoma [1]; [7]) was 63% and the “tf1-120, No. (tf120 + animals dying of toxicity)” value (Yoshida sarcoma [1]; [8]) was 21. For the same molecule, the “tf120, No. (animals surviving day 120 without tumor)” value (Yoshida sarcoma [1]; [8]) was 19, the “M = median survival time” value (Yoshida sarcoma [1]; [7]) was > 120 days and the “effect on the survival time on retest (in words)” value (Yoshida sarcoma [1]) was “significant increasing effect on the survival time”. The “% M (median survival time, untreated control = 100)” value (Yoshida sarcoma [1]; [9]) was 180%, the “D1-120 = difference (%) between tf1-120 of treated and untreated animals” value (Yoshida sarcoma [1]; [9]) was 0% and the “D120 = difference (%) between tf120” value (Yoshida sarcoma [1]; [9]) was 0%. The “tf1-120, No. (tf120 + animals dying of toxicity)” value (Yoshida sarcoma [1]; [10]) was 0, the “tf120, No. (animals surviving day 120 without tumor)” value (Yoshida sarcoma [1]; [10]) was 0 and the “M = median survival time” value (Yoshida sarcoma [1]; [9]) was 18 days. For the same molecule, the “therapeutic results compared with methyl-CCNU / clinically established nitrosoureas (in words)” value (Yoshida sarcoma [1]; Yoshida sarcoma of the rat implanted in the colon) was “better therapeutic results than e.g. the compound methyl-CCNU”, the “effect on survival time / life expectancy (in words)” value (Yoshida sarcoma [1]) was “improved the survival times significantly” and the “effect on survival time / life expectancy (in words)” value (Yoshida sarcoma [1]; listed as morpholino-CNU) was “significant increase in survival time”. For the same molecule, the “chemotherapeutic activity” value (Yoshida sarcoma [1]) was “clear chemotherapeutic activity”, the “chemotherapeutic activity” value (Yoshida sarcoma [1]; listed as morpholino-CNU) was “active” and the “Mean animal weight on day 50” value [2] was 270 g. For the same molecule, the “Mean animal weight on day 100” value [2] was 270 g, the “concentration reached” value (Yoshida sarcoma [3]) was “reached the distal colon at chemotherapeutically effective concentrations” and the “water solubility (in words)” value (Water solubility) was “water-soluble”. The “water solubility (in words)” value (Water solubility; listed as Example 2) was “highly water-soluble”.

For `O=NN(CCCl)C(=O)NN1CCCCC1` [Piperidino-CNU, 1-(2-chloroethyl)-1-nitroso-3-(1-piperidine)urea], the “effectiveness in rat leukemia L 5222 (in words)” value (rat leukemia L 5222) was “very good effectiveness”, the “tumor-free animals at the end” value (Yoshida sarcoma [1]) was “remarkable increase in tumor-free animals” and the “increase in tumor-free animals (cures) above controls” value (Yoshida sarcoma [1]; CP (exp. 1-3)) was 21%. The “% M (median survival time, untreated control = 100)” value (Yoshida sarcoma [1]; [7]) was > 686%, the “D1-120 = difference (%) between tf1-120 of treated and untreated animals” value (Yoshida sarcoma [1]; [7]) was 21% and the “D120 = difference (%) between tf120” value (Yoshida sarcoma [1]; [7]) was 21%. For the same molecule, the “tf1-120 (%)” value (Yoshida sarcoma [1]; [7]) was 50%, the “tf120 (%) (animals surviving day 120 without tumor)” value (Yoshida sarcoma [1]; [7]) was 50% and the “tf1-120, No. (tf120 + animals dying of toxicity)” value (Yoshida sarcoma [1]; [8]) was 15. For the same molecule, the “tf120, No. (animals surviving day 120 without tumor)” value (Yoshida sarcoma [1]; [8]) was 15, the “M = median survival time” value (Yoshida sarcoma [1]; [7]) was > 120 days and the “effect on the survival time on retest (in words)” value (Yoshida sarcoma [1]) was “significant increasing effect on the survival time”. For the same molecule, the “% M (median survival time, untreated control = 100)” value (Yoshida sarcoma [1]; [9]) was 160%, the “D1-120 = difference (%) between tf1-120 of treated and untreated animals” value (Yoshida sarcoma [1]; [9]) was 13% and the “D120 = difference (%) between tf120” value (Yoshida sarcoma [1]; [9]) was 7%. The “tf1-120, No. (tf120 + animals dying of toxicity)” value (Yoshida sarcoma [1]; [10]) was 2, the “tf120, No. (animals surviving day 120 without tumor)” value (Yoshida sarcoma [1]; [10]) was 1 and the “tf1-120 (%)” value (Yoshida sarcoma [1]; [11]) was 13%. The “tf120 (%) (animals surviving day 120 without tumor)” value (Yoshida sarcoma [1]; [11]) was 7%, the “M = median survival time” value (Yoshida sarcoma [1]; [9]) was 16 days and the “effect on survival time / life expectancy (in words)” value (Yoshida sarcoma [1]) was “significantly increased the survival time”. For the same molecule, the “effect on survival time / life expectancy (in words)” value (Yoshida sarcoma [1]; listed as piperidino-CNU) was “significant increase in survival time”, the “chemotherapeutic activity” value (Yoshida sarcoma [1]) was “active” and the “Mean animal weight on day 50” value [2] was 340 g. For the same molecule, the “Mean animal weight on day 100” value [2] was 410 g, the “toxicity (in words)” value [5] was “No toxic effects were seen” and the “toxicity (in words)” value ([5]; listed as piperidino-CNU) was “less toxic than cyclophosphamide”. For the same molecule, the “concentration reached” value (Yoshida sarcoma [3]) was “reached the distal colon at chemotherapeutically effective concentrations” and the “water solubility (in words)” value (Water solubility) was “water-soluble”.
